# Test results: the supplement of paper PMC10307832
# Tests used:
# Experiment in all cases: relative viability (nuclei count vs DMSO), 5 days (fraction); higher = more cells survive
# [1] = system: NCI-H1993
# Summary of the method: (§1)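 Nuclei were stained with Hoechst during a one-step fixation (final 0.05% Triton X-100, 1% formaldehyde, 1 ug/ml Hoechst) carried out 5 days after dosing, then counted on 4× images. The cells, lung cancer lines in 1536-well plates, had been dosed by pin tool the day after seeding with one drug alone or a fixed anchor-drug dose plus five library-drug doses (not always all listed) in √10 steps. Relative viability is the nuclei count in treated wells divided by that in vehicle wells, and each value is the median of duplicate plates.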
# [2] = system: NCI-H2170
# Summary of the method: as §1
# [3] = system: NCI-H2228
# Summary of the method: as §1
# [4] = system: NCI-H2342
# Summary of the method: as §1
# [5] = system: NCI-H2347
# Summary of the method: as §1
# [6] = system: NCI-H23
# Summary of the method: as §1
# [7] = system: NCI-H650
# Summary of the method: as §1
# [8] = system: RERF-LC-KJ
# Summary of the method: as §1
# [9] = system: SK-LU-1
# Summary of the method: as §1
# [10] = system: SK-MES-1
# Summary of the method: as §1
# [11] = system: SW 1573
# Summary of the method: as §1
# [12] = system: UMC-11
# Summary of the method: as §1
structure (smiles),measurement,setting,value
Cc1cn(-c2cc(NC(=O)c3ccc(C)c(Nc4nccc(-c5cccnc5)n4)c3)cc(C(F)(F)F)c2)cn1 [Nilotinib] + CC(=O)c1c(C)c2cnc(Nc3ccc(N4CCNCC4)cn3)nc2n(C2CCCC2)c1=O [Palbociclib] (partner 0.5 µM),relative viability,[1]; first compound 0.03162 µM,0.624
same,relative viability,[1]; first compound 0.1 µM,0.851
same,relative viability,[2]; first compound 0.001 µM,0.373
same,relative viability,[2]; first compound 0.003162 µM,0.474
same,relative viability,[2]; first compound 0.01 µM,0.436
same,relative viability,[2]; first compound 0.03162 µM,0.379
same,relative viability,[2]; first compound 0.1 µM,0.44
same,relative viability,[3]; first compound 0.001 µM,0.677
same,relative viability,[3]; first compound 0.003162 µM,0.924
same,relative viability,[3]; first compound 0.01 µM,0.935
same,relative viability,[3]; first compound 0.03162 µM,0.395
same,relative viability,[3]; first compound 0.1 µM,0.406
same,relative viability,[4]; first compound 0.001 µM,0.508
same,relative viability,[4]; first compound 0.003162 µM,0.559
same,relative viability,[4]; first compound 0.01 µM,0.49
same,relative viability,[4]; first compound 0.03162 µM,0.489
same,relative viability,[4]; first compound 0.1 µM,0.478
same,relative viability,[5]; first compound 0.001 µM,0.452
same,relative viability,[5]; first compound 0.003162 µM,0.419
same,relative viability,[5]; first compound 0.01 µM,0.474
same,relative viability,[5]; first compound 0.03162 µM,0.43
same,relative viability,[5]; first compound 0.1 µM,0.396
same,relative viability,[6]; first compound 0.001 µM,0.494
same,relative viability,[6]; first compound 0.003162 µM,0.52
same,relative viability,[6]; first compound 0.01 µM,0.512
same,relative viability,[6]; first compound 0.03162 µM,0.443
same,relative viability,[6]; first compound 0.1 µM,0.404
same,relative viability,[7]; first compound 0.001 µM,0.335
same,relative viability,[7]; first compound 0.01 µM,0.336
same,relative viability,[7]; first compound 0.03162 µM,0.305
same,relative viability,[7]; first compound 0.1 µM,0.333
same,relative viability,[8]; first compound 0.001 µM,0.965
same,relative viability,[8]; first compound 0.003162 µM,1.11
same,relative viability,[8]; first compound 0.01 µM,1.21
same,relative viability,[8]; first compound 0.03162 µM,0.896
same,relative viability,[8]; first compound 0.1 µM,1.03
same,relative viability,[9]; first compound 0.001 µM,0.355
same,relative viability,[9]; first compound 0.003162 µM,0.334
same,relative viability,[9]; first compound 0.01 µM,0.405
same,relative viability,[9]; first compound 0.03162 µM,0.311
same,relative viability,[9]; first compound 0.1 µM,0.335
same,relative viability,[10]; first compound 0.001 µM,0.347
same,relative viability,[10]; first compound 0.003162 µM,0.298
same,relative viability,[10]; first compound 0.01 µM,0.313
same,relative viability,[10]; first compound 0.03162 µM,0.377
same,relative viability,[10]; first compound 0.1 µM,0.32
same,relative viability,[11]; first compound 0.001 µM,0.391
same,relative viability,[11]; first compound 0.003162 µM,0.408
same,relative viability,[11]; first compound 0.01 µM,0.363
same,relative viability,[11]; first compound 0.03162 µM,0.271
same,relative viability,[11]; first compound 0.1 µM,0.32
same,relative viability,[12]; first compound 0.001 µM,0.299
same,relative viability,[12]; first compound 0.003162 µM,0.296
same,relative viability,[12]; first compound 0.01 µM,0.299
same,relative viability,[12]; first compound 0.03162 µM,0.374
same,relative viability,[12]; first compound 0.1 µM,0.313
